Measured values reported in PMC7180456, “Multitarget Anticancer Agents Based on Histone Deacetylase and Protein Kinase CK2 Inhibitors” (Molecules, 2020).
Read-outs that look alike come from different tables or passages of the source.

Key:
human recombinant HDAC1 = target: T1, human recombinant HDAC1 (Homo sapiens, UniProt Q13547); test: HDAC1 inhibition, fluorometric method (Enzo Fluorometric Drug Discovery Assay Kit); format: biochemical; details: read-out: Inhibitory activity IC50 on HDAC1
T1 construct: purchased Enzo Life Sciences, Inc
T1 sequence (Q13547 whole entry): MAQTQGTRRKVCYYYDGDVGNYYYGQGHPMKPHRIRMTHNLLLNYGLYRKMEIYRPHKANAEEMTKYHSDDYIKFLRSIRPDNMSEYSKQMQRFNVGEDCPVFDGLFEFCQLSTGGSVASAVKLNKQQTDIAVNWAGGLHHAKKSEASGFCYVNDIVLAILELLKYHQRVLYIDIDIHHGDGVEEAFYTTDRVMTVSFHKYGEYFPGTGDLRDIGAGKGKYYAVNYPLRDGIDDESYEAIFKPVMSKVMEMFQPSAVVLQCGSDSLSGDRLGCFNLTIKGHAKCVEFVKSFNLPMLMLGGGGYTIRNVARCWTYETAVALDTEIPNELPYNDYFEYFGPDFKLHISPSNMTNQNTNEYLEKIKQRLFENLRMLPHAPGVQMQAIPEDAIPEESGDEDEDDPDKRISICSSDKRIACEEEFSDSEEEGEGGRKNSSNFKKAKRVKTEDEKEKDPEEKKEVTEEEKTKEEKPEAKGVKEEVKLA
Method: The inhibitory activities of the synthesized compounds were determined against CK2 and HDAC1 and the IC50 values are collected in Table 1. The activity towards human recombinant HDAC1 was tested using a fluorometric method. CK2 inhibitory activity was determined by a radiometric method, using a short peptide ([…]) as a substrate.
(§1) 15 µL of HDAC1 (0.4 µg/well) or HDAC6 (0.5 µg/well) were incubated at 37 °C for 30 minutes with 10 µL of inhibitor diluted in 5% DMSO and 25 µL of fluorogenic substrate (0.05 µL/well of 5 mM solution). Reactions were stopped with the developer and trichostatin A, diluted in buffer without BSA, and the plate was incubated at 30 °C for 45 min, followed by measuring the fluorescence (Ex. 360 nm, Em. 450 nm, Fluoroskan, Thermo Scientific).

HDAC6 = target: T2, HDAC6 (Homo sapiens, UniProt Q9UBN7); test: HDAC6 inhibition, fluorometric method (Enzo Fluorometric Drug Discovery Assay Kit); format: biochemical; details: read-out: Inhibitory activity IC50 on HDAC6
T2 construct: purchased Enzo Life Sciences, Inc
T2 sequence (Q9UBN7 1-1215): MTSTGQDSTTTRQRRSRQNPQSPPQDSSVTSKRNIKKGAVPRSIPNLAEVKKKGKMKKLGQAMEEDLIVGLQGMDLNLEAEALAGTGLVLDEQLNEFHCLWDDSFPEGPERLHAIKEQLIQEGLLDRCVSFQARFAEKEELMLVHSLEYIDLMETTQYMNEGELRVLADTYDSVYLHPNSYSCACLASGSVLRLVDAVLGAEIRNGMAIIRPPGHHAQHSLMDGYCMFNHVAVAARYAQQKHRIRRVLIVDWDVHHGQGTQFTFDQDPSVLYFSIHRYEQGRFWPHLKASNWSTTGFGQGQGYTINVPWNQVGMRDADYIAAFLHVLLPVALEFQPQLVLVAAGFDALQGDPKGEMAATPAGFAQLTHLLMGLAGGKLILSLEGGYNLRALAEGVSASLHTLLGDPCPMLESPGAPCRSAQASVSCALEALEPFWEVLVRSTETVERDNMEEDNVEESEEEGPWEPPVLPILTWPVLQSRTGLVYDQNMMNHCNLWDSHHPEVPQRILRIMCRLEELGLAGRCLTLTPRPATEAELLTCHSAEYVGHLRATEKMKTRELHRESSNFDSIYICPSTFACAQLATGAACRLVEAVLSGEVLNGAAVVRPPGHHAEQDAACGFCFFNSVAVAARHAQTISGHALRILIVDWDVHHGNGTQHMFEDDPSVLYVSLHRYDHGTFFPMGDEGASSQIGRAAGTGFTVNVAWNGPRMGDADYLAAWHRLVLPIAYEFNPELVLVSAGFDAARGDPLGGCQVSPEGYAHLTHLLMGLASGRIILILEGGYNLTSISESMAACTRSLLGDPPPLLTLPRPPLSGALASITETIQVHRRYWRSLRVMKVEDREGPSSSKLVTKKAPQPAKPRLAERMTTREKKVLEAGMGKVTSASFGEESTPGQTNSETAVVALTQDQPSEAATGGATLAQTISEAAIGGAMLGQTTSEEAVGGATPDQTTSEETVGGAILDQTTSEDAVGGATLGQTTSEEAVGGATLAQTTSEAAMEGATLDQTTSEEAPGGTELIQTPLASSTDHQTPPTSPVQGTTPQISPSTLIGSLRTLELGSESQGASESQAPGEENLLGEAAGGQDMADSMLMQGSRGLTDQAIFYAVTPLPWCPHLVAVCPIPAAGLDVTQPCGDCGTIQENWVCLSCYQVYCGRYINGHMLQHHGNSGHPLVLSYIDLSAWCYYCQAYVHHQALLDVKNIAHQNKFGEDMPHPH
Method: For this reason, we analyzed the activity of 15 and 19, together with other compounds from the alkyl and triazole series in HDAC6, tested using a fluorometric method (Table 1).
as §1

[1] = test system: HL-60/adr (doxorubicin-resistant, MRP-1 overexpression); test: Cytotoxicity, trypan blue exclusion assay, 24 h; format: cell-based; details: Homo sapiens, HL60/ADR
Excerpt: (§2) Taking into consideration the high abundance of CK2 kinase in leukemia and lymphomas, the ability of selected CK2-HDAC dual inhibitors to circumvent MDR was investigated in human leukemia cells of HL-60 line and its doxorubicin-resistant (HL-60/adr, MRP-1 overexpression) and vincristine-resistant (HL-60/vinc, P-gp overexpression) sublines.
(§3) Statistical significance was set at P ≤ 0.05.

[2] = test system: HL-60/vinc (vincristine-resistant, P-gp overexpression); test: Cytotoxicity, trypan blue exclusion assay, 24 h; format: cell-based; details: for CC50: Homo sapiens, HL60/vinc
Excerpt: as §2, §3

[3] = test system: leukemia cells of HL-60 line; test: Cytotoxicity, trypan blue exclusion assay, 24 h; format: cell-based; details: Homo sapiens
Excerpt: as §2, §3

[4] = test system: human tumor and pseudonormal cell lines; test: Cytotoxicity, trypan blue assay, range over the cell lines tested; format: cell-based; details: 24 h, read-out: LC50 range depending on cell line
Excerpt: as §3

HL-60/wt cells = test: Depolarization of mitochondria, JC-1 assay, FACS; format: cell-based, human; details: 24 h
Jurkat T-leukemia cells = test: Cytotoxicity, trypan blue exclusion assay, 24 h; details: Homo sapiens
Method: (§4) Walter Berger, Institute of Cancer Research, Vienna Medical University. Human embryonal kidney cells of HEK293 line were obtained from cell culture collection of R.E. Kavetsky Institute of Experimental Pathology, Oncology and Radiobiology, National Academy of Sciences of Ukraine (Kyiv, Ukraine).
(§5) Cells were seeded (5 × 10^5/mL for leukemia cells and 1 × 10^5/mL for carcinoma cells) into 24-well tissue culture plates (Greiner Bio-one, Frickenhausen, Germany) and were permitted to adhere and grow for 24 h before the experiment. Short-term (24 h) cytotoxic effect of antitumor drugs was studied under the Evolution 300 Trino microscope (Delta Optical, Nowe Osiny, Poland) after cell staining with trypan blue dye (0.1%).
(§6) Final concentration of DMSO in cell culture was 0.5% or less.
(§7) All experiments were performed in triplicate and repeated three times. Statistical analysis of data was conducted in GraphPad Prism 7.0 Software (GraphPad Software, Inc.) using Student’s t test. Statistical significance was set at P ≤ 0.05. Evaluation of LC50 values of each compound was done by built-in functions of GraphPad Prism (non-linear regression, curve fit, [Inhibitor] vs. normalized response - Variable slope).

[5] = test system: breast adenocarcinoma cells of MCF-7 line; test: Cytotoxicity, trypan blue exclusion assay, 24 h; details: Homo sapiens
Method: as §4, §5, §6, §7

[6] = test system: HCT-116 colon carcinoma cells; test: Cytotoxicity, trypan blue exclusion assay, 24 h; details: Homo sapiens
Method: as §4, §5, §6, §7

[7] = Cytotoxicity, trypan blue exclusion assay, 24 h (pseudonormal cells); details: human, HEK293 embryonic kidney cells (pseudonormal)
Method: as §4, §5, §6, §7

human recombinant CK2α = target: T3, human recombinant CK2α (Homo sapiens, UniProt P68400); test: CK2 inhibition, radiometric method with peptide substrate […]; format: biochemical; details: for fold less active in CK2 (than in HDAC1): CK2 IC50 versus HDAC1 IC50; for IC50: radiometric method, 20 µM ATP, read-out: Inhibitory activity IC50 on CK2
T3 construct: GST; made in house; host or cells: bacteria
T3 sequence (P68400 whole entry): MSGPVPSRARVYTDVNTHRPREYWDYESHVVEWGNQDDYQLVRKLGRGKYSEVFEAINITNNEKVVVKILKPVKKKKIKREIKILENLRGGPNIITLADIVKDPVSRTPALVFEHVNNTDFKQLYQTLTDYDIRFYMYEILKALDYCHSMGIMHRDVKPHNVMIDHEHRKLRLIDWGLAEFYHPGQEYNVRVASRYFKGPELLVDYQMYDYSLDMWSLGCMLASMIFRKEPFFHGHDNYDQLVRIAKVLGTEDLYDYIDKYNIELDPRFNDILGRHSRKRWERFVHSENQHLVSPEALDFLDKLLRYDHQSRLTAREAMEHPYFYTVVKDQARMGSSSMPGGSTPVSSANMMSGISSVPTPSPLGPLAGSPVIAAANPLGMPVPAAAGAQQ
Method: The activity towards human recombinant HDAC1 was tested using a fluorometric method. CK2 inhibitory activity was determined by a radiometric method, using a short peptide ([…]) as a substrate.
Recombinant human protein kinase GST-CK2 was produced in bacteria and purified as described elsewhere. […] The reaction buffer contained 20 µM [γ-32P] ATP (specific radioactivity 300–1000 cpm/pmol), 15 mM Mg^2+, 20 mM Tris–HCl pH 7.5, and 6 mM 2-mercaptoethanol. 10 µL of the assay mixture was spotted onto a square (1 cm/1 cm) of Whatman P81 paper and allowed to dry. Each square was immersed in cold 0.5% phosphoric acid, and washed three times during 10 min, allowed to dry and transferred into a vessel containing Opti-Phase liquid (scintillation solution) and radioactivity was quantified using a scintillation counter (MicroBeta, Perkin Elmer) by Cerenkov counting. All experiments were performed in triplicate. IC50 values were calculated using GraphPad Prism (version 4.0) software.

CK2 = details: Figure 1; read-out: IC50 of representative CK2 inhibitors; cited from earlier work
[8] = Table 2, trypan blue, 24 h, M ± SD, read-out: LC50 Values of Compounds for Cell Line, HL-60/adr
[9] = supplement Table 4S, M±SD, read-out: LC50 values of compounds for cell line, HL-60/adr
[10] = Table 2, trypan blue, 24 h, M ± SD, read-out: LC50 Values of Compounds for Cell Line, HL-60/vinc
[11] = supplement Table 4S, M±SD, read-out: LC50 values of compounds for cell line, HL-60/vinc
[12] = Table 2, trypan blue, 24 h, M ± SD, read-out: LC50 Values of Compounds for Cell Line, HL-60
[13] = supplement Table 4S, M±SD, read-out: LC50 values of compounds for cell line, HL-60
[14] = 24 h, read-out: LC50 Values of Compounds for Cell Line, Jurkat
[15] = read-out: LC50 values of compounds for cell line, Jurkat
[16] = MCF7, 24 h, read-out: LC50 Values of Compounds for Cell Line, MCF-7
[17] = MCF7, read-out: LC50 values of compounds for cell line, MCF-7
[18] = HCT-116, 24 h, read-out: LC50 Values of Compounds for Cell Line, HCT-116
[19] = HCT-116, read-out: LC50 values of compounds for cell line, HCT-116
[20] = LC50 Values of Compounds for Cell Line, HEK293, Table 2, trypan blue, 24 h, M ± SD
[21] = LC50 values of compounds for cell line, HEK293, supplement Table 4S, M±SD

CN(C)c1nc2c(Br)c(Br)c(Br)c(Br)c2n1CCCCCCCC(=O)NO [Compound 11d, N-Hydroxy-8-(4,5,6,7-tetrabromo-2-(dimethylamino)-1H-benzo[d]imidazol-1-yl)octanamide]
IC50 (human recombinant HDAC1): 13.7 µM
IC50 (HDAC6): 8.98 µM
CC50 [1, 8]: 8.4 ± 1.21 µM
CC50 [1, 9]: 15.1 µM
change of activity towards P-gp overexpressing HL-60/vinc cells versus HL-60/wt ([2]; 24 h): increased twofold
CC50 [2, 10]: 2.32 ± 1.06 µM
CC50 [2, 11]: > 30 µM
CC50 [3, 12]: 4.69 ± 0.54 µM
CC50 [3, 13]: 29.7 µM
CC50 [4]: 3 to 8 µM
level of depolarized mitochondria (HL-60/wt cells; dose not stated in the sentence (10 µM and 30 µM tested)): 53.23%
CC50 (Jurkat T-leukemia cells; [14]): 5.3 ± 0.75 µM
CC50 (Jurkat T-leukemia cells; [15]): 14.2 µM
CC50 [5, 16]: 9.02 ± 0.9 µM
CC50 [5, 17]: 27.8 µM
CC50 [6, 18]: 3.1 ± 0.37 µM
CC50 [6, 19]: 16.9 µM
CC50 at 24 h [7, 20]: 8.41 ± 1.26 µM
CC50 at 24 h [7, 21]: > 30 µM

CN(C)c1nc2c(Br)c(Br)c(Br)c(Br)c2n1CCCCCC(=O)NO [Compound 11b, N-Hydroxy-6-(4,5,6,7-tetrabromo-2-(dimethylamino)-1H-benzo[d]imidazol-1-yl)hexanamide]
IC50 (human recombinant HDAC1): 1.46 µM
IC50 (HDAC6): 0.66 µM
CC50 [1, 8]: 16.2 ± 1.68 µM
CC50 [1, 9]: 10.6 µM
CC50 [2, 10]: 16.8 ± 3.34 µM
CC50 [2, 11]: 12.7 µM
CC50 [3, 12]: 7.67 ± 1.17 µM
CC50 [3, 13]: 6.59 µM
CC50 [4]: 4 to 23 µM
depolarization of mitochondria (HL-60/wt cells; 10 µM): 14.55%
depolarization of mitochondria (HL-60/wt cells; 30 µM): 34.06%
CC50 (Jurkat T-leukemia cells; [14]): 10.2 ± 1.43 µM
CC50 (Jurkat T-leukemia cells; [15]): 10 µM
CC50 [5, 16]: 15.7 ± 2.54 µM
CC50 [5, 17]: 9.97 µM
CC50 [6, 18]: 4.22 ± 0.46 µM
CC50 [6, 19]: 1.9 µM
CC50 at 24 h [7, 20]: 23.3 ± 4.38 µM
CC50 at 24 h [7, 21]: 13.6 µM

CN(C)c1nc2c(Br)c(Br)c(Br)c(Br)c2n1Cc1cn(CCCCC(=O)NO)nn1 [Compound 7b, N-Hydroxy-5-(4-((4,5,6,7-tetrabromo-2-(dimethylamino)-1H-benzo[d]imidazol-1-yl)methyl)-1H-1,2,3-triazol-1-yl)pentanamide]
IC50 (human recombinant HDAC1): 2.25 µM
IC50 (HDAC6): 2.41 µM
fold less active in CK2 (than in HDAC1) (human recombinant CK2α): 22 fold
IC50 (human recombinant CK2α): 50.1 µM

O=C(NO)c1ccc(Cn2nnc3c(Br)c(Br)c(Br)c(Br)c32)cc1 [Compound 15b, N-Hydroxy-4-((tetrabromo-1H-benzo[d][1,2,3]triazol-1-yl)methyl)benzamide]
IC50 (human recombinant HDAC1): 4.22 µM
IC50 (HDAC6): 2.7 µM
IC50 (human recombinant CK2α): 136 µM

O=c1oc2c(O)c(O)cc3c(=O)oc4c(O)c(O)cc1c4c23 [Ellagic acid]
IC50 (CK2): 0.04 µM

CN(C)c1nc2c(Br)c(Br)c(Br)c(Br)c2n1CCCCC(=O)NO [Compound 11a, N-Hydroxy-5-(4,5,6,7-tetrabromo-2-(dimethylamino)-1H-benzo[d]imidazol-1-yl)pentanamide]
IC50 (human recombinant HDAC1): 62 µM
IC50 (human recombinant CK2α): 34.2 µM

CN(C)c1nc2c(Br)c(Br)c(Br)c(Br)c2n1CCc1cn(CCCC(=O)NO)nn1 [Compound 7d, N-Hydroxy-4-(4-(2-(4,5,6,7-tetrabromo-2-(dimethylamino)-1H-benzo[d]imidazol-1-yl)ethyl)-1H-1,2,3-triazol-1-yl)butanamide]
IC50 (human recombinant HDAC1): 10.2 µM
IC50 (human recombinant CK2α): 53.8 µM

O=c1c(O)c(-c2ccc(O)c(O)c2)oc2cc(O)ccc12 [Fisetin]
IC50 (CK2): 0.35 µM

CN(C)c1nc2c(Br)c(Br)c(Br)c(Br)c2n1Cc1cn(CCCC(=O)NO)nn1 [Compound 7a, N-Hydroxy-4-(4-((4,5,6,7-tetrabromo-2-(dimethylamino)-1H-benzo[d]imidazol-1-yl)methyl)-1H-1,2,3-triazol-1-yl)butanamide]
IC50 (human recombinant HDAC1): 1.43 µM
fold less active in CK2 (than in HDAC1) (human recombinant CK2α): 60 fold
IC50 (human recombinant CK2α): 85.1 µM
